Test system: eczema
Experiment: Treatment of eczema in a patient
Type: in vivo, human
Settings: topical to the most gravely affected areas, before the composition
From the text: A patient with eczema visited a pediatrician. […] The patient was prescribed desoximatasone for topical administration to the most gravely affected areas. […] Subsequently, the pediatrician provided the patient's parent with an amount of the exemplary composition as described in Example 3 in a suitable container-closure system, for daily administration to the patient.

For `C[C@@H]1C[C@H]2[C@@H]3CCC4=CC(=O)C=C[C@]4(C)[C@@]3(F)[C@@H](O)C[C@]2(C)[C@H]1C(=O)CO` [desoximatasone], which “results of topical treatment of eczema” value is on record?
Its value is “not satisfactory”.

— patent US20180303777A1, “Hyaluronate Compositions” (Cypress Pharmaceuticals, Inc., priority 2007, published 2018)
